The results in this text go back to US11046691B1 (IDEAYA BIOSCIENCES, INC., priority 2018, dated 2021).

hMAT2A, sequence (P31153 whole entry): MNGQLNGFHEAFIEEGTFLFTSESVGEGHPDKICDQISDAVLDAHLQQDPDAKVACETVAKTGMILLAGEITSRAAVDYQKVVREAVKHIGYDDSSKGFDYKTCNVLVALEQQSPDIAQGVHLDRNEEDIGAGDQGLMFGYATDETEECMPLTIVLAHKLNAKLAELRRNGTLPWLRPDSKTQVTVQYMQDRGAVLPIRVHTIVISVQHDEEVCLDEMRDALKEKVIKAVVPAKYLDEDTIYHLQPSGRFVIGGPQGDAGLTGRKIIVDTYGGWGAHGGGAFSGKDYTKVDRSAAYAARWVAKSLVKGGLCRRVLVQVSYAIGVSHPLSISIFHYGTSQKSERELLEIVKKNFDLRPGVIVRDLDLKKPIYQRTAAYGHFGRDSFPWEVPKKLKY

The first assay deals with hMAT2A (Homo sapiens (Human), UniProt P31153). Put plainly: Phosphate Sensor Fluorescence Assay (MAT2A enzyme inhibition). As to conditions: L-methionine 500 uM, ATP 500 uM, class symbols. It counts as biochemical. The gist of the method:
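Recombinant MAT2A preincubated 15 min at room temperature with compound, then reacted 1 h at room temperature with 500 uM L-methionine and 500 uM ATP in Tris pH 7.5 buffer containing PNP/7-MEG.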
Usually IC50 stands for the concentration that inhibits the measured activity by half. A low value points to inhibition by little substance. For the compound `O=c1nc(NCC2COC2)c2ccc(Cl)cc2n1-c1ccccc1` [Example 232, 7-chloro-4-[(oxetan-3-ylmethyl)amino]-1-phenylhydroquinazolin-2-one], the IC50 was < 200 nM. For the compound `CNc1nc(=O)n(-c2ncccn2)c2cc(C(F)(F)F)ccc12` [Example 123, 4-(methylamino)-1-pyrimidin-2-yl-7-(trifluoromethyl)hydroquinazolin-2-one], the half-maximal inhibitory concentration (IC50) is 200 to 500 nM. Same read-out and setting: the same measure for `CNC(=O)C1CN(c2nc(=O)n(-c3ccccc3)c3cc(Cl)ccc23)C1` [Example 204, 1-(7-chloro-2-oxo-1-phenyl-1,2-dihydroquinazolin-4-yl)-N-methyl-azetidine-3-carboxamide]: < 200 nM; for `O=c1nc(NCC(F)F)c2ccc(C(F)(F)F)cc2n1-c1cccnc1` [Example 325, 4-[(2,2-difluoroethyl)amino]-1-(pyridin-3-yl)-7-(trifluoromethyl)hydro-quinazolin-2-one]: < 200 nM; for `[2H]C([2H])([2H])Nc1nc(=O)n(-c2ccccc2Cl)c2nc(C(F)(F)F)ccc12` [Example 379, 1-(2-chlorophenyl)-4-((methyl-d3)-amino)-7-(trifluoromethyl)pyrido[2,3-d]pyrimidin-2(1H)-one]: < 200 nM. The same measure, in the same setting: in the case of `O=c1nc(N[C@H]2C[C@@H]2F)c2ccc(OC(F)(F)F)cc2n1-c1ccccc1Cl` [Example 418, 1-(2-chlorophenyl)-4-(((1S,2S)-2-fluorocyclopropyl)amino)-7-(trifluoro-methoxy)quinazolin-2(1H)-one] it was < 200 nM; in that of `Nc1nc(=O)n(-c2ncccn2)c2cc(C(F)(F)F)ccc12` [Example 124, 4-amino-1-pyrimidin-2-yl-7-(trifluoro-methyl)hydroquinazolin-2-one], 500 to 1000 nM. As to `[2H]C([2H])([2H])Nc1nc(=O)n(-c2ccccc2Cl)c2cc(Cl)ccc12` [Example 347, 7-chloro-1-(2-chlorophenyl)-4-((methyl-d3)amino)quinazolin-2(1H)-one], the IC50 is < 200 nM.

On to `CN(C)c1nc(=O)n(-c2cccc(NS(=O)(=O)C3(C)CC3)c2)c2cc(Cl)ccc12` [Example 211], for which the 50% inhibitory concentration (IC50) lay in the range of 500 to 1000 nM.

On to `CO[C@H]1C[C@H](Nc2nc(=O)n(-c3ccccc3Cl)c3nc(C(F)(F)F)ccc23)C1` [Example 301], for which the IC50 is < 200 nM. As to `CN(Cc1cccnc1)c1nc(=O)n(-c2ccccc2)c2cc(Cl)ccc12` [Example 235, 7-chloro-4-[methyl(pyridin-3-ylmethyl)-amino]-1-phenylhydroquinazolin-2-one], the half-maximal inhibitory concentration (IC50) is < 200 nM.

`CNc1nc(=O)n(-c2ccccc2C#N)c2cc(Cl)ccc12` [Example 219, 2-(7-chloro-4-(methylamino)-2-oxo-quinazolin-1(2H)-yl)benzonitrile] had a half-inhibitory concentration (IC50) of 200 to 500 nM. Same read-out and setting: the same measure for `O=c1nc(N2CC(O)C2)c2ccc(C(F)(F)F)nc2n1-c1ccccc1` [Example 171, 4-(3-hydroxyazetidin-1-yl)-1-phenyl-7-(trifluoromethyl)pyrido[2,3-d]pyrimidin-2(1H)-one]: < 200 nM.

`[2H]C([2H])([2H])Nc1nc(=O)n(-c2ccccc2C)c2cc(C(F)(F)F)ccc12` [Example 367, 4-((methyl-d3)amino)-1-(o-tolyl)-7-(trifluoromethyl)quinazolin-2(1H)-one]: the IC50 is < 200 nM.

On to `CNc1nc(=O)n(-c2cccc(O)c2F)c2cc(Cl)ccc12` [Example 333, 7-chloro-1-(2-fluoro-3-hydroxyphenyl)-4-(methylamino)quinazolin-2(1H)-one], for which the half-inhibitory concentration (IC50) was < 200 nM. Consider `CNc1nc(=O)n(-c2ccccc2)c2cc(C(F)(F)F)c(Br)cc12` [Example 303, 6-bromo-4-(methylamino)-1-phenyl-7-(trifluoromethyl)quinazolin-2(1H)-one], for which the IC50 was < 200 nM. For the compound `CNc1nc(=O)n(-c2cccc(C(=O)O)c2)c2cc(Cl)ccc12` [Example 133, 3-[7-chloro-4-(methylamino)-2-oxo-hydroquinazolin-1-yl]benzoic acid], the IC50 is < 200 nM.

Compound `O=C(O)c1cccc(-n2c(=O)[nH]c(=O)c3ccc(Cl)cc32)c1` [Example 156, 3-(7-chloro-4-hydroxy-2-oxohydro-quinazolinyl)benzoic acid] came in with an IC50 of 1000 to 10000 nM. As for `CNc1nc(=O)n(-c2ncccc2C)c2nc(C(F)(F)F)ccc12` [Example 260, 1-(3-methyl(2-pyridyl))-4-(methyl-amino)-7-(trifluoromethyl)pyrido[2,3-d]-pyrimidin-2(1H)-one], the IC50 was < 200 nM. For the compound `CNc1nc(=O)n(-c2ccccc2)c2cc(Cl)cc(OCCN)c12` [Example 402, 5-(2-aminoethoxy)-7-chloro-4-(methyl-amino)-1-phenylhydroquinazolin-2-one], the concentration for half-maximal inhibition (IC50) lay within 500 to 1000 nM. The same measure, in the same setting: the same measure for `CC(C)(C)Nc1nc(=O)n(-c2ccccc2Cl)c2nc(C(F)(F)F)ccc12` [Example 259, 4-[(tert-butyl)amino]-1-(2-chloro-phenyl)-7-(trifluoromethyl)pyrido-[2,3-d]pyrimidin-2(1H)-one]: < 200 nM; for `O=c1nc(N[C@@H]2CC[C@@H]2O)c2ccc(C(F)(F)F)nc2n1-c1ccccc1Cl` (atropisomer, axis not shown; (Sa)) [Example 335, 4-[((2S,1R)-2-hydroxycyclobutyl)-amino]-(1Sa)-(2-chlorophenyl)-7-(trifluoromethyl)hydro-pyrido[2,3-d]-pyrimidin-2(1H)-one]: < 200 nM. Same read-out and setting: the same measure for `CNc1nc(=O)n(-c2ccccc2C)c2cc(C3CC3)ccc12` [Example 352, 7-cyclopropyl-4-(methylamino)-1-(2-methylphenyl)hydroquinazolin-2-one]: < 200 nM; for `O=c1nc(N[C@H]2C[C@@H](O)C2)c2ccc(C(F)(F)F)nc2n1-c1ccccc1Cl` [Example 321]: < 200 nM; for `COc1cc(C2CC2)cc2c1c(NCC1(F)CC1)nc(=O)n2-c1ccccc1Cl` [Example 407, 1-(2-chlorophenyl)-7-cyclopropyl-4-{[(fluorocyclopropyl)methyl]amino}-5-methoxyhydroquinazolin-2-one]: < 200 nM. On the same count and under the same terms, the same measure for `O=c1nc(N[C@H]2C[C@H](O)C2)c2ccc(C(F)(F)F)nc2n1-c1ccccc1Cl` [Example 334, 1-(2-chlorophenyl)-4-(((1r,3r)-3-hydroxycyc1obutyl)amino)-7-(trifluoro-methyl)pyrido[2,3-d]pyrimidin-2(1H)-one]: < 200 nM; for `CN(C)C(=O)CN(C)c1nc(=O)n(-c2ccccc2)c2cc(Cl)ccc12` [Example 220, 2-((7-chloro-2-oxo-1-phenyl-1,2-dihydroquinazolin-4-yl)(methyl)amino)-N,N-dimethylacetamide]: 1000 to 10000 nM. Take `CC(=O)Nc1nc(=O)n(-c2ccccc2)c2cc(Cl)ccc12` [Example 203, N-(7-chloro-2-oxo-1-phenyl-1,2-dihydroquinazolin-4-yl)acetamide]: the concentration for half-maximal inhibition (IC50) lay within 200 to 500 nM. Still for that read-out and setting: in the case of `CCc1ccc2c(NC)nc(=O)n(-c3ccccc3)c2c1` [Example 115, 7-ethyl-4-(methylamino)-1-phenylhydro-quinazolin-2-one] it was < 200 nM; in that of `CNc1nc(=O)n(-c2cccnc2)c2cc(C(F)(F)F)ccc12` [Example 341, 4-(methylamino)-1-(pyridin-3-yl)-7-(trifluoromethyl)hydroquinazolin-2-one], < 200 nM; in that of `Cc1ncccc1-n1c(=O)[nH]c(=O)c2ccc(C(F)(F)F)nc21` [Example 364, 1-(2-methylpyridin-3-yl)-7-(trifluoro-methyl)pyrido[2,3-d]pyrimidine-2,4(1H,3H)-dione], < 200 nM. Still for that read-out and setting: the same measure for `CNc1nc(=O)n(-c2cccnc2C)c2cc(C(F)(F)F)ccc12` [Example 284]: < 200 nM; for `CNc1nc(=O)n(-c2ncccn2)c2cc(C3CC3)ccc12` [Example 309, 7-cyclopropyl-4-(methylamino)-1-pyrimidin-2-ylhydroquinazolin-2-one]: 1000 to 10000 nM; for `O=c1nc(NCCO)c2ccc(C(F)(F)F)nc2n1-c1ccccc1Cl` [Example 296, 1-(2-chlorophenyl)-4-[(2-hydroxy-Iethyl)amino]-7-(trifluoromethyl) pyrido[2,3-d]pyrimidin-2(1H)-one]: < 200 nM.

Regarding “1-[2-(difluoromethoxy)(3--pyridyl)]-7- cyclopropyl-4-[(cyclopropylmethyl)- amino]hydroquinazolin-2-one [Example 416]”, the IC50 was < 200 nM.

Still in this assay, the particulars now being: L-methionine 500 uM, ATP 500 uM, numeric bound.
In the case of `O=c1[nH]c(=O)n(-c2nccc(O)n2)c2cc(Cl)ccc12` [Example 210, 7-chloro-1-(4-hydroxypyrimidin-2-yl)-1,3-dihydroquinazoline-2,4-dione], the IC50 was > 10000 nM.

For `O=c1[nH]c(=O)n(-c2nc3ccccc3s2)c2cc(Cl)ccc12` [Example 253, 1-benzothiazol-2-yl-7-chloro-1,3-dihydroquinazoline-2,4-dione], the half-maximal inhibitory concentration (IC50) is > 10000 nM. For the compound `O=c1nc(NCC(F)F)c2ccc(Cl)cc2n1-c1ccc2nccn2c1` [Example 249, 4-[(2,2-difluoroethyl)amino]-7-chloro-1-(4-hydroimidazo[1,2-a]pyridin-6-yl)-hydroquinazolin-2-one], the IC50 was > 10000 nM.

With `CNc1nc(=O)n(-c2ncc(C)s2)c2cc(Cl)ccc12` [Example 116, 7-chloro-1-(5-methyl(1,3-thiazol-2-yl))-4-(methylamino)hydroquinazolin-2-one], the 50% inhibitory concentration (IC50) is > 10000 nM. Still for that read-out and setting: in the case of `O=c1[nH]c(=O)n(-c2ccccc2Cl)c2c(Cl)c(C(F)(F)F)ccc12` [Example 360, 8-chloro-1-(2-chlorophenyl)-7-(trifluoro-methyl)pyrido[2,3-d]pyrimidine-2,4(1H,3H)-dione-1] it was > 10000 nM; in that of `CNc1nc(=O)n(-c2ccccc2)c2c(Cl)c(C(F)(F)F)ccc12` [Example 343, 8-chloro-4-(methylamino)-1-phenyl-7-(trifluoromethyl)hydroquinazolin-2-one], > 10000 nM. For `O=c1[nH]c(=O)n(-c2cccc3nc[nH]c23)c2cc(Cl)ccc12` [Example 305, 1-benzimidazol-7-yl-7-chloro-1,3-dihydroquinazoline-2,4-dione], the half-inhibitory concentration (IC50) is > 10000 nM.
